Each compound was assayed against T1, Nav1.7 voltage-gated sodium channel (Homo sapiens, UniProt Q15858) (assay: Whole-cell voltage clamp electrophysiology assay). Conditions: cells stably expressing the voltage-gated sodium channel of interest.
T1 construct: Gene(s) encoding the full-length protein of the voltage-gated sodium channel of interest are cloned and expressed; expressed in transfected cells
T1 sequence (Q15858 whole entry): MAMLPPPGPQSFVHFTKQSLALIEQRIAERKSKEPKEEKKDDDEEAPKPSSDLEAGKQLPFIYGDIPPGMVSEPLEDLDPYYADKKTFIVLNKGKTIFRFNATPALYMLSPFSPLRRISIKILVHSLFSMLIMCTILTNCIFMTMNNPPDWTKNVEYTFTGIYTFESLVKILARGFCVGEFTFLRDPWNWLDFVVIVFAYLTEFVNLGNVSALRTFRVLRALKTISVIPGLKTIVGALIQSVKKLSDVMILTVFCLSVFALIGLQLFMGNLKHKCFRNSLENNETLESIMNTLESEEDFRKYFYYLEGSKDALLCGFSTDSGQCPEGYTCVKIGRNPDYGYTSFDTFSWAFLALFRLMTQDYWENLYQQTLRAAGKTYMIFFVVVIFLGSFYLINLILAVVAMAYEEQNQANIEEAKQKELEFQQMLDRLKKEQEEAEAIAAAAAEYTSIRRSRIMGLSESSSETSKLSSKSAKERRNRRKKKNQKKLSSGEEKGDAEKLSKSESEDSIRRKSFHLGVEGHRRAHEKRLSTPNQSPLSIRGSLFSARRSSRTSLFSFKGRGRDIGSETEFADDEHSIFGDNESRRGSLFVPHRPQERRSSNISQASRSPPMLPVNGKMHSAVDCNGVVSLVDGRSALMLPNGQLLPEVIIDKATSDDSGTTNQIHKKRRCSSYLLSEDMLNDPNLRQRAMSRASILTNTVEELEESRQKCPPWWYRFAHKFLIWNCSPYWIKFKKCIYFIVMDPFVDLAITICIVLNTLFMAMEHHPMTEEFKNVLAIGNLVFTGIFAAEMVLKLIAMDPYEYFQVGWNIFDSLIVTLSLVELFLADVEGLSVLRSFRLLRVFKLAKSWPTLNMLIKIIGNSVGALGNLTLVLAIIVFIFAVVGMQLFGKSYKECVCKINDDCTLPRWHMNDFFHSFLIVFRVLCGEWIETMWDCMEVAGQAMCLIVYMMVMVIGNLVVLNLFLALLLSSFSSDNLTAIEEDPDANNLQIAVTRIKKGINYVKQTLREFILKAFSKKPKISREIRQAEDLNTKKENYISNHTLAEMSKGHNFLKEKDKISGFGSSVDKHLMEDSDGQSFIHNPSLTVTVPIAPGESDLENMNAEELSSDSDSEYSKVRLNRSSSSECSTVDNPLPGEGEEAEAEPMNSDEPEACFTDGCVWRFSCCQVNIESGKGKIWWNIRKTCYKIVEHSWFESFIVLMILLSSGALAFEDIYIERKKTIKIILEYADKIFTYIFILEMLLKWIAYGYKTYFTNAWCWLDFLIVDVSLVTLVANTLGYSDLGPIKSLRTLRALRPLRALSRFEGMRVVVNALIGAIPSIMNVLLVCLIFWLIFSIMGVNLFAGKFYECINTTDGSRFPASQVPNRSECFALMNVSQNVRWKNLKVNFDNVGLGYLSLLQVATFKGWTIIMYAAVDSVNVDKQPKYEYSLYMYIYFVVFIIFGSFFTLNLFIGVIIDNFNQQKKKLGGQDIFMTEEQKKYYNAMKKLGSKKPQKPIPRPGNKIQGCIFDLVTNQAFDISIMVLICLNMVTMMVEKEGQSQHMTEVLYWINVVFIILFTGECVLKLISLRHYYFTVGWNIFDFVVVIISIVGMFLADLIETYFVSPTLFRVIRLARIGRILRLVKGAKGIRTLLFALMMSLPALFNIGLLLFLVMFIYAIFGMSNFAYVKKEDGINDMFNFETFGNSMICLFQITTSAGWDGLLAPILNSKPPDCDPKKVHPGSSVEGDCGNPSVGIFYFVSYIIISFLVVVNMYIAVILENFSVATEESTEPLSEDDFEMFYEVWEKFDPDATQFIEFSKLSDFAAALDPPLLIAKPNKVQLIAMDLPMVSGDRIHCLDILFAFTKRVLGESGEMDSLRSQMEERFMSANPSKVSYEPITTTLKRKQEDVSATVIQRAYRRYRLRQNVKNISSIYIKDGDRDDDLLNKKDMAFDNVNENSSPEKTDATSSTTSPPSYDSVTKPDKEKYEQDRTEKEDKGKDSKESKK
Type: cell-based
Text: Gene(s) encoding the full-length protein of the voltage-gated sodium channel of interest are cloned and expressed under a suitable promoter in a suitable cell line, as well known in the art. […] Suitable screening assays are as follows.
Electrophysiological studies can be performed using automated patch-clamp electrophysiology platforms, like IonWorks HT, IonWorks Quattro, PatchXpress, QPatch or any other suitable platform. […] Suitable extracellular and intracellular buffer for such experiments are applied according to the instructions given by the manufacturer of the automated patch-clamp platforms. Cells that express the voltage-gated sodium channel protein of interest are exposed to drugs through the pipetting system integrated in the platforms. A suitable voltage stimulus protocol is used to activate the voltage-gated sodium channel proteins of interest through depolarisation from a defined holding potential.
Electrophysiological studies can also be performed using the whole cell configuration of the standard patch clamp technique. In this assay, cells that express the voltage-gated sodium channel protein of interest are exposed to the drugs by conventional microperfusion systems and a suitable voltage stimulus protocol is used to activate the voltage-gated sodium channels.
O=C(N[C@@H]1COc2cccc(-c3cccnc3)c2C1)c1ccc2cccnc2n1 [Example 45, N-[(3S)-5-pyridin-3-yl-3,4-dihydro-2H-chromen-3-yl]-1,8-naphthyridine-2-carboxamide] gave an IC50 of 1260 nM.
O=C(N[C@@H]1COc2cccc(-c3cccnc3)c2C1)c1ccc2ncccc2n1 [Example 46, N-[(3S)-5-pyridin-3-yl-3,4-dihydro-2H-chromen-3-yl]-1,5-naphthyridine-2-carboxamide] was tested, and the IC50 was 3160 nM.
In the case of COc1ccc(-c2cccc3c2C[C@H](NC(=O)c2cnc(OCCC(F)(F)F)cn2)CO3)cn1 [Example 48, N-[(3S)-5-(6-methoxypyridin-3-yl)-3,4-dihydro-2H-chromen-3-yl]-5-(3,3,3-trifluoropropoxy)pyrazine-2-carboxamide], the IC50 is reported as 631 nM.
COc1ccc(-c2cccc3c2C[C@H](NC(=O)c2cnc(OC)cn2)CO3)cn1 [Example 49, 5-methoxy-N-[(3S)-5-(6-methoxypyridin-3-yl)-3,4-dihydro-2H-chromen-3-yl]pyrazine-2-carboxamide] was tested, and the IC50 was 1260 nM.
For CC(C)Oc1ccc(C(=O)N[C@@H]2COc3cccc(-c4cccnc4)c3C2)cn1 [Example 50, 6-isopropoxy-N-[(3S)-5-pyridin-3-yl-3,4-dihydro-2H-chromen-3-yl]nicotinamide], the IC50 was 63.1 nM.
O=C(N[C@@H]1COc2cccc(-c3cccnc3)c2C1)c1ccc(OCCC(F)(F)F)nc1 [Example 51, N-[(3S)-5-pyridin-3-yl-3,4-dihydro-2H-chromen-3-yl]-6-(3,3,3-trifluoropropoxy)nicotinamide] gave an IC50 of 39.8 nM.
For Cc1nn(CC(C)C)nc1C(=O)N[C@@H]1COc2cccc(-c3cccnc3)c2C1 [Example 52, 2-isobutyl-5-methyl-N-[(3S)-5-pyridin-3-yl-3,4-dihydro-2H-chromen-3-yl]-2H-1,2,3-triazole-4-carboxamide], the IC50 was 3980 nM.
Work on CC(C)Oc1ccc(C(=O)N[C@@H]2COc3cccc(-c4cncnc4)c3C2)cn1 [Example 53, 6-isopropoxy-N-[(3S)-5-pyrimidin-5-yl-3,4-dihydro-2H-chromen-3-yl]nicotinamide] yielded an IC50 of 251 nM.
O=C(N[C@@H]1COc2cccc(-c3cncnc3)c2C1)c1ccc(OCCC(F)(F)F)nc1 [Example 54, N-[(3S)-5-pyrimidin-5-yl-3,4-dihydro-2H-chromen-3-yl]-6-(3,3,3-trifluoropropoxy)nicotinamide] gave an IC50 of 63.1 nM.
COc1ncc(-c2cccc3c2C[C@H](NC(=O)c2ccc(OC(C)C)nc2)CO3)cn1 [Example 55, 6-isopropoxy-N-[(3S)-5-(2-methoxypyrimidin-5-yl)-3,4-dihydro-2H-chromen-3-yl]nicotinamide] was tested, and the IC50 was 316 nM.
With COc1cc(-c2cccc3c2C[C@H](NC(=O)c2ccc(OC(C)C)nc2)CO3)ccn1 [Example 58, 6-isopropoxy-N-[(3S)-5-(2-methoxypyridin-4-yl)-3,4-dihydro-2H-chromen-3-yl]nicotinamide] the IC50 was 398 nM.
COc1cc(-c2cccc3c2C[C@H](NC(=O)c2ccc(OCCC(F)(F)F)nc2)CO3)ccn1 [Example 59, N-[(3S)-5-(2-methoxypyridin-4-yl)-3,4-dihydro-2H-chromen-3-yl]-6-(3,3,3-trifluoropropoxy)nicotinamide] was tested, and the IC50 was 126 nM.
With Cc1ncc(-c2cccc3c2C[C@H](NC(=O)c2ccc(OC(C)C)nc2)CO3)cn1 [Example 60, 6-isopropoxy-N-[(3S)-5-(2-methylpyrimidin-5-yl)-3,4-dihydro-2H-chromen-3-yl]nicotinamide] the IC50 was 158 nM.
Work on Cc1ncc(-c2cccc3c2C[C@H](NC(=O)c2ccc(OCCC(F)(F)F)nc2)CO3)cn1 [Example 61, N-[(3S)-5-(2-methylpyrimidin-5-yl)-3,4-dihydro-2H-chromen-3-yl]-6-(3,3,3-trifluoropropoxy)nicotinamide] yielded an IC50 of 50.1 nM.
CC(C)Oc1ccc(C(=O)N[C@@H]2COc3cccc(-c4ccnc(F)c4)c3C2)cn1 [Example 62, N-[(3S)-5-(2-fluoropyridin-4-yl)-3,4-dihydro-2H-chromen-3-yl]-6-isopropoxynicotinamide] showed an IC50 of 251 nM.
O=C(N[C@@H]1COc2cccc(-c3ccnc(F)c3)c2C1)c1ccc(OCCC(F)(F)F)nc1 [Example 63, N-[(3S)-5-(2-fluoropyridin-4-yl)-3,4-dihydro-2H-chromen-3-yl]-6-(3,3,3-trifluoropropoxy)nicotinamide] gave an IC50 of 79.4 nM.
Work on O=C(N[C@@H]1COc2cccc(-c3cccnc3)c2C1)c1ccc2ccccc2n1 [Example 65, N-[(3S)-5-pyridin-3-yl-3,4-dihydro-2H-chromen-3-yl]quinoline-2-carboxamide] yielded an IC50 of 5010 nM.
Cc1cnccc1-c1cccc2c1C[C@H](NC(=O)c1ccc(OC(C)C)nc1)CO2 [Example 66, 6-isopropoxy-N-[(3S)-5-(3-methylpyridin-4-yl)-3,4-dihydro-2H-chromen-3-yl]nicotinamide] showed an IC50 of 158 nM.
In the case of CC(C)Oc1ccc(C(=O)N[C@@H]2COc3cccc(-c4ccc(F)nc4)c3C2)cn1 [Example 67, N-[(3S)-5-(6-fluoropyridin-3-yl)-3,4-dihydro-2H-chromen-3-yl]-6-isopropoxynicotinamide], the IC50 is reported as 501 nM.
Cc1cnccc1-c1cccc2c1C[C@H](NC(=O)c1ccc(OCCC(F)(F)F)nc1)CO2 [Example 68, N-[(3S)-5-(3-methylpyridin-4-yl)-3,4-dihydro-2H-chromen-3-yl]-6-(3,3,3-trifluoropropoxy)nicotinamide] gave an IC50 of 100 nM.
O=C(N[C@@H]1COc2cccc(-c3ccc(F)nc3)c2C1)c1ccc(OCCC(F)(F)F)nc1 [Example 69, N-[(3S)-5-(6-fluoropyridin-3-yl)-3,4-dihydro-2H-chromen-3-yl]-6-(3,3,3-trifluoropropoxy)nicotinamide] showed an IC50 of 79.4 nM.
COc1ccc(-c2ccc(C(=O)N[C@@H]3COc4cccc(-c5ccncc5)c4C3)cn2)c(OC)c1 [Example 70, 6-(2,4-dimethoxyphenyl)-N-[(3S)-5-pyridin-4-yl-3,4-dihydro-2H-chromen-3-yl]nicotinamide] was tested, and the IC50 was 1000 nM.
With COc1ncccc1-c1cccc2c1C[C@H](NC(=O)c1ccc(OC(C)C)nc1)CO2 [Example 71, 6-isopropoxy-N-[(3S)-5-(2-methoxypyridin-3-yl)-3,4-dihydro-2H-chromen-3-yl]nicotinamide] the IC50 was 2000 nM.
For COc1ncccc1-c1cccc2c1C[C@H](NC(=O)c1ccc(OCCC(F)(F)F)nc1)CO2 [Example 72, N-[(3S)-5-(2-methoxypyridin-3-yl)-3,4-dihydro-2H-chromen-3-yl]-6-(3,3,3-trifluoropropoxy)nicotinamide], the IC50 was 501 nM.
COc1ncc(-c2cccc3c2C[C@@H](NC(=O)c2ccc(OC(C)C)nc2)CC3)cn1 [Example 73, 6-isopropoxy-N-[(2S)-8-(2-methoxypyrimidin-5-yl)-1,2,3,4-tetrahydronaphthalen-2-yl]nicotinamide] was tested, and the IC50 was 3980 nM.
For CC(C)Oc1ccc(C(=O)N[C@@H]2CCc3cccc(-c4cccnc4F)c3C2)cn1 [Example 74, N-[(2R)-8-(2-fluoropyridin-3-yl)-1,2,3,4-tetrahydronaphthalen-2-yl]-6-isopropoxynicotinamide], the IC50 was 251 nM.
O=C(N[C@@H]1CCc2cccc(-c3ccnnc3)c2C1)c1ccc(OCCC(F)(F)F)nc1 [Example 75, N-[(2R)-8-pyridazin-4-yl-1,2,3,4-tetrahydronaphthalen-2-yl]-6-(3,3,3-trifluoropropoxy)nicotinamide] gave an IC50 of 631 nM.

From patent US8143408B2, “N-(8-heteroaryltetrahydronaphtalene-2yl) or N-(5-heteroarylchromane-3-yl) carboxamide derivatives for the treatment of pain” (AstraZeneca AB, priority 2007, dated 2012)
